Measurements as given in publication PMC11481871, “Discovery of GuaB inhibitors with efficacy against Acinetobacter baumannii infection” (mBio, 2024).
In brackets after ≈: the same amount, converted by molar mass. Where two headings read alike, the source gives them in different places.

Columns and labels:
Bacillus subtilis = assay: MIC, CLSI microdilution; assay type: cell-based; settings: RPMI1640
Serratia marcescens = assay: MIC, CLSI microdilution; assay type: cell-based; settings: 20 h; Serratia marcescens (ATCC29021); M9 + casamino acids + glucose
Mycobacterium smegmatis = assay: MIC, CLSI microdilution; assay type: cell-based; settings: Mycolicibacterium smegmatis; Mycobacterium smegmatis mc2-155; 7H9 + OADC, 48 h
Pseudomonas aeruginosa = assay: MIC, CLSI microdilution; assay type: cell-based; settings: 20 h; Pseudomonas aeruginosa PAO1; M9 + casamino acids + glucose
hERG = target: T1, hERG (Homo sapiens, UniProt Q12809); assay: hERG 2-point automatic patch clamp assay; assay type: cell-based
T1 construct: expressed in transfected cells; host or cells: HEK293
Protocol: All chemicals used in solution preparation were purchased from Sigma-Aldrich (St. Louis, MO) unless otherwise noted. Test article and positive control concentrations were prepared fresh daily by diluting stock solutions into a HEPES-buffered physiological saline solution (composition in mM): NaCl, 137; KCl, 4.0; CaCl2, 1.8; MgCl2, 1; HEPES, 10; glucose, 10; pH adjusted to 7.4 with NaOH. HEK293 cells were stably transfected with hERG cDNA and maintained in the culture medium with the appropriate selection pressure and antibiotics. All experiments were performed at room temperature. […]
In preparation for a recording session, intracellular solution was loaded into the intracellular compartments of the QPlate and cell suspension was pipetted into the extracellular compartments. After establishment of a whole-cell configuration, membrane currents were recorded using up to 48 parallel patch clamp amplifiers in the QPatch HT system. The current records were sampled at 2,000 Hz and low-pass Bessel filtered at 400 Hz. Onset and block of hERG current were measured using a stimulus voltage pattern consisting of a 500 ms prepulse to –40 mV (leakage subtraction), a 2-s activating pulse to +40 mV, followed by a 2-s test pulse to −40 mV. The pulse pattern was repeated continuously at 10-s intervals, from a holding potential of −80 mV. Peak tail current (upper panel) was measured during the −40 mV test pulse. Leakage current was calculated from the current amplitude evoked by the prepulse and subtracted from the total membrane current record. Data acquisition and analysis was performed using the QPatch Assay Software (Sophion Bioscience A/S, Denmark). Solubility of all compounds was measured using TurboSol in conjunction with the ion channel testing.

Enterococcus faecium = assay: MIC, CLSI microdilution; assay type: cell-based; settings: Enterococcus faecium (ATCC700221); RPMI1640
E. coli GuaB = E. coli GuaB (Escherichia coli, UniProt P0ADG7); assay: GuaB biochemical IC50
Klebsiella pneumoniae = assay: MIC, CLSI microdilution; assay type: cell-based; settings: ATCC43816, 20 h; Klebsiella pneumoniae (ATCC 43816); M9 + casamino acids + glucose
in vitro = assay type: cell-based, human; settings: human
Protocol: (§1) Primary human hepatocytes were plated on 384-well, collagen-coated plates in incubation media with no serum or with 10% fetal bovine serum (FBS). Eighteen hours later, cells were treated with the test article at seven concentrations starting at 100 µM in twofold dilutions, chlorpromazine (positive control) at seven concentrations starting at 100 µM in twofold dilutions or aflatoxin (positive control) at seven concentrations starting at 25 µM in twofold dilutions. Cell viability was then assayed using the Promega Cell TiterGlo ATP Assay.

[1] = system: Primary human hepatocytes; assay: in vitro; assay type: cell-based
Protocol: as §1

H. sapiens IMPDH2 = H. sapiens IMPDH2 (Homo sapiens, UniProt P12268); assay: IMPDH2 biochemical IC50
[2] = system: A. baumannii 19606 (wild-type); assay: microbe, parasite or virus in culture; assay type: cell-based, Acinetobacter baumannii; settings: for MIC: Acinetobacter baumannii
[3] = system: A. baumannii ΔlpxA (LPS-null); assay: MIC on LPS-null A. baumannii; assay type: cell-based; settings: Acinetobacter baumannii, read-out: Avg. MIC
Enterobacter aerogenes = assay: MIC, CLSI microdilution; assay type: cell-based; settings: Klebsiella aerogenes, 20 h; Enterobacter aerogenes (ATCC13048); M9 + casamino acids + glucose
[4] = system: 41 different cellular targets; assay: Secondary pharmacology panel (Cerep Eurofins); assay type: binding; settings: for Hits (>50% Binding) / Hits (>75% Binding): 41 targets
[5] = system: Staphylococcus epidermidis; assay: MIC, CLSI microdilution; assay type: cell-based; settings: Staphylococcus epidermidis RP62A (ATCC35984); RPMI1640
A. baumannii GuaB = A. baumannii GuaB (Acinetobacter baumannii, UniProt D0CF46); assay: GuaB biochemical IC50
[6] = system: Stenotrophomonas maltophilia; assay: MIC, CLSI microdilution; assay type: cell-based; settings: 20 h; Stenotrophomonas maltophilia (ATCC700267); M9 + casamino acids + glucose
Citrobacter werkmanii = assay: MIC, CLSI microdilution; assay type: cell-based; settings: 20 h; Citrobacter werkmanii (ATCC51114); M9 + casamino acids + glucose
Proteus mirabilis = assay: MIC, CLSI microdilution; assay type: cell-based; settings: 20 h; Proteus mirabilis (ATCC29906); M9 + casamino acids + glucose
Escherichia coli = assay: MIC, CLSI microdilution; assay type: cell-based; settings: 20 h; Escherichia coli UPEC CFT073; M9 + casamino acids + glucose
[7] = General cytotoxicity IC50, Serum
[8] = General cytotoxicity IC50, Serum-Free
[9] = 24 h, M9 media + 100µM guanine, 24 hours, read-out: A.b.19606 Average CLSI MIC (n=3)
[10] = 24 h, M9 media, 24 hours, read-out: A.b.19606 Average CLSI MIC (n=3)
[11] = A. baumannii 19606 wild-type (Fig 3D), read-out: Avg. MIC
[12] = guaB allele wild-type, M9 media (cross-resistance table), read-out: A.b.19606 Average CLSI MIC (n=3)

E. coli GuaB, sequence (P0ADG7 whole entry): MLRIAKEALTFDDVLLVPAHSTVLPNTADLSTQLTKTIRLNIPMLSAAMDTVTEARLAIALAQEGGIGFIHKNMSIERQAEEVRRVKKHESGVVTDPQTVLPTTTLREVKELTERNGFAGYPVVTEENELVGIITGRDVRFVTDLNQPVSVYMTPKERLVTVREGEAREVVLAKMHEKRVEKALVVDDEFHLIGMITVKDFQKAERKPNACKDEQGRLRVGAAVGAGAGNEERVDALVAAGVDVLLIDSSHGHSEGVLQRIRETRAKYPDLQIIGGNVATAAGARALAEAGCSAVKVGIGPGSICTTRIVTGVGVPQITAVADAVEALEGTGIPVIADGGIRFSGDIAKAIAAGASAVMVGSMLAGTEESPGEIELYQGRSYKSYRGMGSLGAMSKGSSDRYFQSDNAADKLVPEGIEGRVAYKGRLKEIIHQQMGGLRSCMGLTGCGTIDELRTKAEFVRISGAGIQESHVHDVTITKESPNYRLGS
A. baumannii GuaB, sequence (D0CF46 entry or part of it): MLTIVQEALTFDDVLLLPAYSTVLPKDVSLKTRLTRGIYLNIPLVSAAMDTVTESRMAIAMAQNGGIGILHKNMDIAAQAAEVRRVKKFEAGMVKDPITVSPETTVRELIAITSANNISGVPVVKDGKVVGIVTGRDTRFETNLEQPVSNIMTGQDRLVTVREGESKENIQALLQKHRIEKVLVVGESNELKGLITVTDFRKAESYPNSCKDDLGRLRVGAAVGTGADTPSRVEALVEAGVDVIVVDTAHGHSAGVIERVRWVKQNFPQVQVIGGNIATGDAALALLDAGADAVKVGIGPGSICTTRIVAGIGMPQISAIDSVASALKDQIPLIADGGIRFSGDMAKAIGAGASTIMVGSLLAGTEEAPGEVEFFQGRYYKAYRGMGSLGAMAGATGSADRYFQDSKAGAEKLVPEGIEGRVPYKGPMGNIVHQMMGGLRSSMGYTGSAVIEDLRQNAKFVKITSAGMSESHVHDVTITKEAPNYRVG
T1 sequence (Q12809 whole entry): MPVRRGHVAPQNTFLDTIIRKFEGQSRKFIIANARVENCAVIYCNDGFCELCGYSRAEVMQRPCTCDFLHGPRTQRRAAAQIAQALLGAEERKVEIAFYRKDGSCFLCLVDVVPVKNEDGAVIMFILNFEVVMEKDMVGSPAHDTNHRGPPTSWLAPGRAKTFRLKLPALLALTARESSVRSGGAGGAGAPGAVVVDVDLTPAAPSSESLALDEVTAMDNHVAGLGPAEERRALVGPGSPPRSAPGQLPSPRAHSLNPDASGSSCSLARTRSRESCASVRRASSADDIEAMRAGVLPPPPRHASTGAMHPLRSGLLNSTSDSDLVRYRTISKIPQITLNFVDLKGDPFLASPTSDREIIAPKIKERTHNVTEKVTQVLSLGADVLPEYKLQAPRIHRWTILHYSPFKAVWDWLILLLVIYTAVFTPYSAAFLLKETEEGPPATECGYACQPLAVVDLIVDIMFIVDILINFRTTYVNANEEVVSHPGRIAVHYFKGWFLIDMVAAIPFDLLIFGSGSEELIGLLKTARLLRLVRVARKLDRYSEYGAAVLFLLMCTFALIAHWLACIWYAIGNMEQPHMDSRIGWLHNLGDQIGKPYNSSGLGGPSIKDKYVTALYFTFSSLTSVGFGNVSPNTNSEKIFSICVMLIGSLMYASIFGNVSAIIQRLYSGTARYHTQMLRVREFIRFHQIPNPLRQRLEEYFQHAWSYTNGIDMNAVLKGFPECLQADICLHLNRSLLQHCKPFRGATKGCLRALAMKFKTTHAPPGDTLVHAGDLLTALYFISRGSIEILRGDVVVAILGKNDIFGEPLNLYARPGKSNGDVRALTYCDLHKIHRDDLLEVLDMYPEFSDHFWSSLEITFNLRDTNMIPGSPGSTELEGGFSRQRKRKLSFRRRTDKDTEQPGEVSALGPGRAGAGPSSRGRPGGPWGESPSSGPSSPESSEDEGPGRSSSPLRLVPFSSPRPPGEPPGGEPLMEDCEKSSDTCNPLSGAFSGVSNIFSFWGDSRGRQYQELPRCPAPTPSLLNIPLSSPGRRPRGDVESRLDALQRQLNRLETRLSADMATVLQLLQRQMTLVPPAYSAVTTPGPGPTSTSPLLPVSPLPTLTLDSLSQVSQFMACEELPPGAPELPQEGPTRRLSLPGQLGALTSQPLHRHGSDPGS

| Structure (SMILES) | MIC (Bacillus subtilis) [µM] | MIC (Serratia marcescens) [µM] | MIC (Mycobacterium smegmatis) [µM] | MIC (Pseudomonas aeruginosa) [µM] | hERG 10µM (hERG) [%] | MIC (Enterococcus faecium) [µM] | IC50 (E. coli GuaB) [nM] | MIC (Klebsiella pneumoniae) [µM] | IC50 at 2 day (in vitro; [7]) [nM] | IC50 at 2 day (in vitro; [8]) [nM] | in vitro safety profile: cytotoxicity [1] | IC50 (H. sapiens IMPDH2) [nM] | MIC [2, 9] [µM] | MIC [2, 10] [µM] | MIC [2, 11] [µM] | MIC [2, 12] [µM] | GuaBi CLSI MIC fold change from parent strain ([2]; guaB allele wild-type) | MIC [3] [µM] | MIC (Enterobacter aerogenes) [µM] | in vitro safety profile: promiscuity [4] | other results |
| --- | --- | --- | --- | --- | --- | --- | --- | --- | --- | --- | --- | --- | --- | --- | --- | --- | --- | --- | --- | --- | --- |
| C[C@H](Nc1ccc2ncc3c(c2c1)CCOC3)C(=O)Nc1ccc(Cl)nc1 [G1, (2S)-N-(6-chloro-3-pyridyl)-2-(2,4-dihydro-1H-pyrano[3,4-c]quinolin-9 ylamino)propanamide] | 1.2 (≈ 0.459 µg/mL) | > 100 | 0.01 | 100 | 37.20 | 1 (≈ 0.383 µg/mL) | 480 | > 100 | > 100000 | > 100000 | low cytotoxicity | > 50000 | > 100 | 1 (≈ 0.383 µg/mL) | 0.69 (≈ 0.264 µg/mL) | 0.5 (≈ 0.191 µg/mL) | 1 | 0.025 (≈ 0.00957 µg/mL) | > 100 | low promiscuity | hERG 1µM (hERG): 2.80%; in vitro safety profile: selectivity [4]: good selectivity; Promiscuity Risk ([4]; 10µM): 0%; Selectivity Risk ([4]; 10µM): 0%; Hits (>50% Binding) ([4]; 10µM): 0; Hits (>75% Binding) ([4]; 10µM): 0; MIC [5]: 0.03 µM (≈ 0.0115 µg/mL); IC50 (A. baumannii GuaB): 0.26 nM; MIC [6]: 14 µM; MIC (Citrobacter werkmanii): > 100 µM; MIC (Proteus mirabilis): > 100 µM; MIC (Escherichia coli): > 100 µM |
| C[C@H](Nc1ccc2ncc(CO)cc2c1)C(=O)Nc1ccc(Cl)c(N(C)C)c1 [G2, (2S)-N-[4-chloro-3-(dimethylamino)phenyl]-2-[[3-(hydroxymethyl)-6-quinolyl]amino]propanamide] | 13.8 (≈ 5.5 µg/mL) | > 100 | 1.3 | > 100 | 8.60 | 5.2 (≈ 2.07 µg/mL) | 16 | > 100 | > 100000 | > 100000 | low cytotoxicity | > 50000 | > 100 | 4.2 (≈ 1.68 µg/mL) | 2 (≈ 0.798 µg/mL) | 4.2 (≈ 1.68 µg/mL) | 1 | 0.07 (≈ 0.0279 µg/mL) | > 100 | low promiscuity | hERG 1µM (hERG): 1.70%; hERG 50µM (hERG): *48.5%; in vitro safety profile: selectivity [4]: good selectivity; Promiscuity Risk ([4]; 10µM): 0%; Selectivity Risk ([4]; 10µM): 0%; Hits (>50% Binding) ([4]; 10µM): 0; Hits (>75% Binding) ([4]; 10µM): 0; Promiscuity Risk ([4]; 50µM): 0%; Selectivity Risk ([4]; 50µM): 3%; Hits (>50% Binding) ([4]; 50µM): 1; Hits (>75% Binding) ([4]; 50µM): 0; MIC [5]: 0.4 µM (≈ 0.16 µg/mL); IC50 (A. baumannii GuaB): 0.63 nM; MIC [6]: 38 µM; MIC (Citrobacter werkmanii): > 100 µM; MIC (Proteus mirabilis): > 100 µM; MIC (Escherichia coli): > 100 µM |
| C[C@@H](Oc1ccc2ncc3c(c2c1)CCOC3)c1cncc(-c2nc(Cl)c[nH]2)c1 [G8, (R)-9-[1-[5-(4-chloro-1H-imidazol-2-yl)-3-pyridyl]ethoxy]-2,4-dihydro-1H-pyrano[3,4 c]quinoline] | 0.05 (≈ 0.0203 µg/mL) | > 100 | 0.02 | 50 | 6.3 | 0.03 (≈ 0.0122 µg/mL) | 8 | > 100 | 19200 | 30200 | cytotoxicity liabilities | > 50000 | > 100 | 0.4 (≈ 0.163 µg/mL) | 0.39 (≈ 0.159 µg/mL) | 0.3 (≈ 0.122 µg/mL) | 1 | 0.007 (≈ 0.00285 µg/mL) | > 100 | high promiscuity risk | hERG 50µM (hERG): 50.1%; in vitro safety profile: selectivity [4]: off-target selectivity; Promiscuity Risk ([4]; 50µM): 51%; Selectivity Risk ([4]; 50µM): 17%; Hits (>50% Binding) ([4]; 50µM): 21; Hits (>75% Binding) ([4]; 50µM): 7; MIC [5]: 0.004 µM (≈ 0.00163 µg/mL); IC50 (A. baumannii GuaB): 0.14 nM; MIC [6]: 5 µM; MIC (Citrobacter werkmanii): > 100 µM; MIC (Proteus mirabilis): > 100 µM; MIC (Escherichia coli): > 100 µM |
